Source: publication PMC9719519, “Non-classical ferroptosis inhibition by a small molecule targeting PHB2” (Nature Communications, 2022)

How the values were obtained:
ATR/ATRIP(h) = ATR/ATRIP(h) (Homo sapiens, UniProt Q13535); assay: biochemical; set-up: Eurofins recombinant human kinase profiling, remaining kinase activity as % of control, 10 uM ATP; settings: ATP 10 uM; read-out: %Ctrl@10 μM
Excerpt: (§1) To rapidly determine the biological target of YL-939, we first tested the activity of YL-939 against a panel of 401 recombinant human protein kinases by using the kinase profiling assay provided by Eurofins, since kinases are often the key components in various signal pathways[35],[36]. […] We then carried out affinity-based proteome profiling assay (ABPP) coupled with bioimaging to identify the biological target of YL-939 (Fig. 4A). To this end, we designed and synthesized a photoaffinity probe, YL-939-1 (Fig. 4A and Supplementary Fig. 5), which is YL-939 attached by a photo-crosslinker (L3) that contains a photo-reactive group diazirine and a clickable alkyne handle.

PKCε(h) = target: T1, PKCε(h) (Homo sapiens, UniProt Q02156); assay: biochemical; set-up: Eurofins recombinant human kinase profiling, remaining kinase activity as % of control, 10 uM ATP; settings: ATP 10 uM; read-out: %Ctrl@10 μM
T1 construct: gene PRKCE
Excerpt: as §1

MAPKAP-K3(h) = target: T2, MAPKAP-K3(h) (Homo sapiens, UniProt Q16644); assay: biochemical; set-up: Eurofins recombinant human kinase profiling, remaining kinase activity as % of control, 10 uM ATP; settings: ATP 10 uM; read-out: %Ctrl@10 μM
T2 construct: gene MAPKAPK3
Excerpt: as §1

PKBβ(h) = target: T3, PKBβ(h) (Homo sapiens, UniProt P31751); assay: biochemical; set-up: Eurofins recombinant human kinase profiling, remaining kinase activity as % of control, 10 uM ATP; settings: ATP 10 uM; read-out: %Ctrl@10 μM
T3 construct: gene AKT2
Excerpt: as §1

Cdc7/cyclinB1(h) = Cdc7/cyclinB1(h) (Homo sapiens, UniProt O00311); assay: biochemical; set-up: Eurofins recombinant human kinase profiling, remaining kinase activity as % of control, 10 uM ATP; settings: ATP 10 uM; read-out: %Ctrl@10 μM
Excerpt: as §1

PKCθ(h) = target: T4, PKCθ(h) (Homo sapiens, UniProt Q04759); assay: biochemical; set-up: Eurofins recombinant human kinase profiling, remaining kinase activity as % of control, 10 uM ATP; settings: ATP 10 uM; read-out: %Ctrl@10 μM
T4 construct: gene PRKCQ
Excerpt: as §1

ICK(h) = target: T5, ICK(h) (Homo sapiens, UniProt Q9UPZ9); assay: biochemical; set-up: Eurofins recombinant human kinase profiling, remaining kinase activity as % of control, 10 uM ATP; settings: ATP 10 uM; read-out: %Ctrl@10 μM
T5 construct: gene CILK1
Excerpt: as §1

DAPK2(h) = DAPK2(h) (Homo sapiens, UniProt Q9UIK4); assay: biochemical; set-up: Eurofins recombinant human kinase profiling, remaining kinase activity as % of control, 10 uM ATP; settings: ATP 10 uM; read-out: %Ctrl@10 μM
Excerpt: as §1

EphB4(h) = EphB4(h) (Homo sapiens, UniProt P54760); assay: biochemical; set-up: Eurofins recombinant human kinase profiling, remaining kinase activity as % of control, 10 uM ATP; settings: ATP 10 uM; read-out: %Ctrl@10 μM
Excerpt: as §1

BrSK2(h) = BrSK2(h) (Homo sapiens, UniProt Q8IWQ3); assay: biochemical; set-up: Eurofins recombinant human kinase profiling, remaining kinase activity as % of control, 10 uM ATP; settings: ATP 10 uM; read-out: %Ctrl@10 μM
Excerpt: as §1

DDR1(h) = DDR1(h) (Homo sapiens, UniProt Q08345); assay: biochemical; set-up: Eurofins recombinant human kinase profiling, remaining kinase activity as % of control, 10 uM ATP; settings: ATP 10 uM; read-out: %Ctrl@10 μM
Excerpt: as §1

FGFR1(V561M)(h) = FGFR1(V561M)(h) (Homo sapiens, UniProt P11362, V561M); assay: biochemical; set-up: Eurofins recombinant human kinase profiling, remaining kinase activity as % of control, 10 uM ATP; settings: ATP 10 uM; read-out: %Ctrl@10 μM
Excerpt: as §1

[1] = target: T6, PI3 Kinase (p110(H1047R)/p85)(h) (Homo sapiens, UniProt P42336, H1047R); assay: biochemical; set-up: Eurofins recombinant human kinase profiling, remaining kinase activity as % of control, 10 uM ATP; settings: ATP 10 uM; read-out: %Ctrl@10 μM
T6 construct: gene PIK3CA
Excerpt: as §1

ALK2(h) = target: T7, ALK2(h) (Homo sapiens, UniProt Q04771); assay: biochemical; set-up: Eurofins recombinant human kinase profiling, remaining kinase activity as % of control, 10 uM ATP; settings: ATP 10 uM; read-out: %Ctrl@10 μM
T7 construct: gene ACVR1
Excerpt: as §1

SIK3(h) = SIK3(h) (Homo sapiens, UniProt Q9Y2K2); assay: biochemical; set-up: Eurofins recombinant human kinase profiling, remaining kinase activity as % of control, 10 uM ATP; settings: ATP 10 uM; read-out: %Ctrl@10 μM
Excerpt: as §1

SNRK(h) = SNRK(h) (Homo sapiens, UniProt Q9NRH2); assay: biochemical; set-up: Eurofins recombinant human kinase profiling, remaining kinase activity as % of control, 10 uM ATP; settings: ATP 10 uM; read-out: %Ctrl@10 μM
Excerpt: as §1

STK33(h) = STK33(h) (Homo sapiens, UniProt Q9BYT3); assay: biochemical; set-up: Eurofins recombinant human kinase profiling, remaining kinase activity as % of control, 10 uM ATP; settings: ATP 10 uM; read-out: %Ctrl@10 μM
Excerpt: as §1

Tie2(R849W)(h) = target: T8, Tie2(R849W)(h) (Homo sapiens, UniProt Q02763, R849W); assay: biochemical; set-up: Eurofins recombinant human kinase profiling, remaining kinase activity as % of control, 10 uM ATP; settings: ATP 10 uM; read-out: %Ctrl@10 μM
T8 construct: gene TEK
Excerpt: as §1

GRK6(h) = GRK6(h) (Homo sapiens, UniProt P43250); assay: biochemical; set-up: Eurofins recombinant human kinase profiling, remaining kinase activity as % of control, 10 uM ATP; settings: ATP 10 uM; read-out: %Ctrl@10 μM
Excerpt: as §1

PKCα(h) = target: T9, PKCα(h) (Homo sapiens, UniProt P17252); assay: biochemical; set-up: Eurofins recombinant human kinase profiling, remaining kinase activity as % of control, 10 uM ATP; settings: ATP 10 uM; read-out: %Ctrl@10 μM
T9 construct: gene PRKCA
Excerpt: as §1

ASK1(h) = target: T10, ASK1(h) (Homo sapiens, UniProt Q99683); assay: biochemical; set-up: Eurofins recombinant human kinase profiling, remaining kinase activity as % of control, 10 uM ATP; settings: ATP 10 uM; read-out: %Ctrl@10 μM
T10 construct: gene MAP3K5
Excerpt: as §1

prohibitin 2 (PHB2) = prohibitin 2 (PHB2) (Homo sapiens, UniProt Q99623); assay: SPR on purified recombinant PHB2 […]-194; DSF shift […] °C; DARTS in cells; type: binding; set-up: PHB2 1–194 (6× His tag)
Sequence of prohibitin 2 (PHB2) (Q99623 1-194): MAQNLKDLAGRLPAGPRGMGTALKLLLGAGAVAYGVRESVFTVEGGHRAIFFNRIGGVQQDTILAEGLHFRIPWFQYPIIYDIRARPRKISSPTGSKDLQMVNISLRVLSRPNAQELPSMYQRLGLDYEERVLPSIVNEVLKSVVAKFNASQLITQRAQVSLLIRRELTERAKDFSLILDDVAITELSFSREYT

T7 sequence (Q04771 whole entry): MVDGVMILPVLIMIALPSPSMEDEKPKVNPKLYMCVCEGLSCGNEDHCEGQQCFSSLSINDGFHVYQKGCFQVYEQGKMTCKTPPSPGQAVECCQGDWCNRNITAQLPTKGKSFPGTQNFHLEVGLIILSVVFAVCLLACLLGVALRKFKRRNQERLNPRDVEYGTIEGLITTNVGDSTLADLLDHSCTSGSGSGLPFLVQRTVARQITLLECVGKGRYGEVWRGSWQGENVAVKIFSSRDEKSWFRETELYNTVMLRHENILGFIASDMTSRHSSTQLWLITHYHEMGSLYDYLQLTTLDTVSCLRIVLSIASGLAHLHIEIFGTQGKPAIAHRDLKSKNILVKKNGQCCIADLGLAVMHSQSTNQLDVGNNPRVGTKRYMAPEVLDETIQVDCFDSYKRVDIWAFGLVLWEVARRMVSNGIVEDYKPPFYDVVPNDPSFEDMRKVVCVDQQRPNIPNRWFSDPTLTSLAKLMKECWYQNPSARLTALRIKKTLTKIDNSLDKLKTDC
Sequence of STK33(h) (Q9BYT3 whole entry): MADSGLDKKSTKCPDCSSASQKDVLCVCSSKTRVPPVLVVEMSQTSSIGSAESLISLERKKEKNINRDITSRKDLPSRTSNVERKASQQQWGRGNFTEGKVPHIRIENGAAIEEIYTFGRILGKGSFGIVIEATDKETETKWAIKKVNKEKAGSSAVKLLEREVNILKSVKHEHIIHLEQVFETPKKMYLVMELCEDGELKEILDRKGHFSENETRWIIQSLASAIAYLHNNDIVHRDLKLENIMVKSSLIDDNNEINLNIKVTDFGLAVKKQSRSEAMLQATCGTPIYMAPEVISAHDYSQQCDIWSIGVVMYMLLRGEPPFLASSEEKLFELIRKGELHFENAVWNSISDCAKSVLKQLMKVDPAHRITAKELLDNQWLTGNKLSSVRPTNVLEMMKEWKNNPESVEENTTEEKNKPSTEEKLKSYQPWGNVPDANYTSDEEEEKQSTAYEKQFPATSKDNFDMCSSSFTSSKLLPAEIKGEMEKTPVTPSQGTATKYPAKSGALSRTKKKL
Sequence of SIK3(h) (Q9Y2K2 whole entry): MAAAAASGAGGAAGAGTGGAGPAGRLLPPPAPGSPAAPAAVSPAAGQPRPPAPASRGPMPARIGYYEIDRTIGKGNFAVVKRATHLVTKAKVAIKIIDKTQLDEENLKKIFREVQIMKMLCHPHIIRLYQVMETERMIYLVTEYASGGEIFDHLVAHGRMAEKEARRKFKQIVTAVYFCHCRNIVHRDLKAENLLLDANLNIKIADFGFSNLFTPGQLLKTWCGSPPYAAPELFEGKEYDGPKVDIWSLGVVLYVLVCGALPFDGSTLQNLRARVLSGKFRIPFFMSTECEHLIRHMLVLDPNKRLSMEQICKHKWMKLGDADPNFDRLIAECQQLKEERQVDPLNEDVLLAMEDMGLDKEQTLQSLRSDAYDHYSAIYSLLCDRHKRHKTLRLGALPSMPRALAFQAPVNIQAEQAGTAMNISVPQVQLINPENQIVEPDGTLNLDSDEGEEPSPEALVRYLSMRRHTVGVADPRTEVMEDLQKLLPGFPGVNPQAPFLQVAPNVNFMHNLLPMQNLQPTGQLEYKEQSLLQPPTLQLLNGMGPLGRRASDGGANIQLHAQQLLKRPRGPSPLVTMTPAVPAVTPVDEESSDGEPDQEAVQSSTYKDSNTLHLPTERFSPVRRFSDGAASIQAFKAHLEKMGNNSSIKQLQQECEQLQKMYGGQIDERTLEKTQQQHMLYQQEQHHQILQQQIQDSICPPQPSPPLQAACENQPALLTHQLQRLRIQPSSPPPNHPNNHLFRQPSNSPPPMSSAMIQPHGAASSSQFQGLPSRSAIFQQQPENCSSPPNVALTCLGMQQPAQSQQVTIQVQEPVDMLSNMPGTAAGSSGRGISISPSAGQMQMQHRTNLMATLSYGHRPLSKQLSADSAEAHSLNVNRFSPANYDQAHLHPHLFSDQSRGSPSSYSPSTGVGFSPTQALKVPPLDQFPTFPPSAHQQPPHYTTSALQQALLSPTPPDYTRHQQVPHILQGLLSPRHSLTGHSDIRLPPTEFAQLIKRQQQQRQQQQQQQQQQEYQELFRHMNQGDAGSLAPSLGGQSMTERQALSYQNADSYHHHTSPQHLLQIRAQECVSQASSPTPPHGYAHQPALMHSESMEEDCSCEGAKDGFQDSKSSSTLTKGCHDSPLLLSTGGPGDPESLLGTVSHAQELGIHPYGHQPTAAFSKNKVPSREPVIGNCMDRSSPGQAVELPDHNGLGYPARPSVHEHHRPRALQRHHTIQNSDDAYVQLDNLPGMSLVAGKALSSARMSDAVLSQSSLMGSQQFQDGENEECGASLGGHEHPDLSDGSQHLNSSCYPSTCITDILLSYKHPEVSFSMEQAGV
T3 sequence (P31751 whole entry): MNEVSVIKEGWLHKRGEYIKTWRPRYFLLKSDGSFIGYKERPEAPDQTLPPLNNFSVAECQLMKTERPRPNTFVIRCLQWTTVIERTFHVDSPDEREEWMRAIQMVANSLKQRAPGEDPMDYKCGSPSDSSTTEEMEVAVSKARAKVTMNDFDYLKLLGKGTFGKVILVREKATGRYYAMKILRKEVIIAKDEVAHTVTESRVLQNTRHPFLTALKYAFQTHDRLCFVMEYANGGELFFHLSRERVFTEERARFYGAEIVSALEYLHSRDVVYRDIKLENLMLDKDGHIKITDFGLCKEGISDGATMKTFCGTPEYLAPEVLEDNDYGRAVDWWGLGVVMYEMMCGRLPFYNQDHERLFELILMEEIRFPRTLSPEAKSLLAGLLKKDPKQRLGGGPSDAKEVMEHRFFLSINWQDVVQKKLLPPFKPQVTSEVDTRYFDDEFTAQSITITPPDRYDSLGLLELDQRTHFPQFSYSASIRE
T1 sequence (Q02156 whole entry): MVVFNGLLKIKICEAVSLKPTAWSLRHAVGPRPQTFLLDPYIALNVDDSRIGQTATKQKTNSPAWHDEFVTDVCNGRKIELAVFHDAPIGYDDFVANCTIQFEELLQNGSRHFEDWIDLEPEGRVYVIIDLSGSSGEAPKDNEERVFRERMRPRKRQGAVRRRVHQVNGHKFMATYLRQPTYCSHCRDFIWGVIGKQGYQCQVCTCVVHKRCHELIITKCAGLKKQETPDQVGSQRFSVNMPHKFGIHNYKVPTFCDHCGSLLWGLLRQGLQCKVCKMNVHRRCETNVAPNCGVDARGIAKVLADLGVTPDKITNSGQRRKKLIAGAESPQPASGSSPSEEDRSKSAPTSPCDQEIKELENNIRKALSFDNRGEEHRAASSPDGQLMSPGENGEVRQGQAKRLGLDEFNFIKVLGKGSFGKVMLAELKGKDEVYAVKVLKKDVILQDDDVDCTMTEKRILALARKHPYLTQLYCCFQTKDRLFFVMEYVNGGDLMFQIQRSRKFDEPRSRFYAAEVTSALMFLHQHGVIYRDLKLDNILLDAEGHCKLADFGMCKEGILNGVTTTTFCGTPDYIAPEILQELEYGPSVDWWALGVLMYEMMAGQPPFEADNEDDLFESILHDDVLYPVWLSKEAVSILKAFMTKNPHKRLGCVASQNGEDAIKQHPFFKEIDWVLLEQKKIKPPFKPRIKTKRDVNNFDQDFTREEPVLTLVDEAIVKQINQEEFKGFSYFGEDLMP
Sequence of DAPK2(h) (Q9UIK4 whole entry): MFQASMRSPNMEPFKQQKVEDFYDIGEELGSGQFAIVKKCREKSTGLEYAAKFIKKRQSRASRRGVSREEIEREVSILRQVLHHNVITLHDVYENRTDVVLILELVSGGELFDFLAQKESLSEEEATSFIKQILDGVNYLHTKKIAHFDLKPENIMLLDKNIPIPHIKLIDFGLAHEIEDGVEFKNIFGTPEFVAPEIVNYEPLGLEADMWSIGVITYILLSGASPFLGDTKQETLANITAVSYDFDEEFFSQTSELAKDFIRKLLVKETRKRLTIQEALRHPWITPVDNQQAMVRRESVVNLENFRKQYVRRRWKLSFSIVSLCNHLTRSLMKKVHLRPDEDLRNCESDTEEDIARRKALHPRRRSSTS

## C1=C(c2nc(-c3cnn(C4CCNCC4)c3)cn3cc(-c4ccccc4)nc23)CCOC1 [YL-939]
ATR/ATRIP(h)
  remaining activity at 10 µM: 88%
PKCε(h)
  remaining activity at 10 µM: 95%
MAPKAP-K3(h)
  remaining activity at 10 µM: 102%
PKBβ(h)
  remaining activity at 10 µM: 87%
Cdc7/cyclinB1(h)
  remaining activity at 10 µM: 104%
PKCθ(h)
  remaining activity at 10 µM: 93%
ICK(h)
  remaining activity at 10 µM: 92%
DAPK2(h)
  remaining activity at 10 µM: 138%
EphB4(h)
  remaining activity at 10 µM: 97%
BrSK2(h)
  remaining activity at 10 µM: 101%
DDR1(h)
  remaining activity at 10 µM: 98%
FGFR1(V561M)(h)
  remaining activity at 10 µM: 65%
[1]
  remaining activity at 10 µM: 99%
ALK2(h)
  remaining activity at 10 µM: 88%
SIK3(h)
  remaining activity at 10 µM: 84%
SNRK(h)
  remaining activity at 10 µM: 100%
STK33(h)
  remaining activity at 10 µM: 105%
Tie2(R849W)(h)
  remaining activity at 10 µM: 122%
GRK6(h)
  remaining activity at 10 µM: 87%
PKCα(h)
  remaining activity at 10 µM: 104%
ASK1(h)
  remaining activity at 10 µM: 110%
Prohibitin 2 (PHB2)
  Kd: 3.43 µM
